Reference: US12377086B2, “Therapeutic methods, combinations and kits” (priority 2021, dated 2025)
Like-named read-outs stand apart in the source and are kept apart here.

Columns and labels:
NDM-1 [1] = biological target: T1, NDM-1 (Klebsiella pneumoniae, UniProt C7C422); assay: biochemical
Description: BL21 (DE3) E. coli cells containing the pET26b-ndm-1 plasmid were used to inoculate a 50 mL LB starter culture containing kanamycin (25 μg/mL). The culture was grown overnight at 37° C. The starter culture was then used to inoculate 4×1 L LB containing kanamycin (25 μg/mL). These flasks were incubated at 37° C. until culture reached an optical density of (OD600) of 0.6 to 0.8. The incubator was then set to 22° C. and the cultures were shaken for 30 min to allow them to cool. ZnCl2 ([…]) and IPTG (0.5 mM) were then added to the cultures and they were grown for 18 h at 22° C. The cells were then harvested using centrifugation (8000×g) for 10 min. The pellet was resuspended with 25 mL 50 mM HEPES, pH 7.5 containing 500 mM NaCl (Buffer B). Lysis was performed with three passes through a French Press. The lysate was centrifuged for 30 min (15,000×g) at 4° C. The supernatant was then dialyzed versus 2 L 50 mM HEPES, pH 7.5 (Buffer C) for 4 h. An FPLC was used to equilibrate a Q-Sepharose column using buffer C using a flowrate of 2.0 mL/min for 1.5 h. The lysate was then loaded onto the column and eluted with a linear NaCl gradient from 0-500 mM. Fractions containing NDM-1 were identified with SDS-PAGE. These fractions were pooled and concentrated to 2-3 mL in an Amicon ultracentrifugation concentrating unit with a YM-10 membrane. The resulting protein mixture was then loaded onto a Sephacryl S-200 gel filtration column run with 50 mM HEPES, pH 7.5 containing 150 mM NaCl (Buffer A). SDS-PAGE was used to identify fractions containing pure protein.
(§1) To identify potential MBL inhibitors, the relative change in the formation of hydrolyzed nitrocefin between treated and untreated MBL was determined as percentage inhibition. 5 nM of each BML was pre-incubated for 10 mins with 50 μM of each compound, followed by the addition of 10 μM nitrocefin.
(§2) Each MBL was incubated with 50 μM of each compound, followed by the addition of nitrocefin. The relative change in absorbance is reported as percentage inhibition.

VIM-2 [2] = biological target: T2, VIM-2 (Pseudomonas aeruginosa, UniProt Q5U7L7); assay: biochemical
Description: (§3) The pET24a-VIM-2 plasmid was transformed into competent BL21 (DE3) E. coli cells. The cells were plated onto an LB-agar plate with kanamycin (25 μg/mL) and incubated overnight at 37° C. A single colony was used to inoculate 50 mL of LB, containing 25 μg/mL kanamycin, and the culture was shaken overnight at 37° C. From the overnight culture, 10 mL were transferred to 4×IL LB medium containing 25 μg/mL kanamycin. The cultures were grown at 37° C. until an optical density (OD600 nm) of 0.6-0.8 was reached, at which point protein production was induced with IPTG (0.5 mM) and ZnCl2 (100 μM). The temperature was reduced to 20° C., and the cells were shaken for an additional 18 h. The cultures were harvested by centrifugation (8 Kxg) for 10 min at 4° C. The resulting pellets were re-suspended in 25 mL of 50 mM HEPES, pH 7.5, containing 500 mM NaCl (buffer B). The cells were lysed with three passes through a French Press. The lysate was centrifuged (15 Kxg) for 30 min at 4° C. The supernatant was dialyzed against 2 L of 50 mM HEPES, pH 7.5 (buffer A), for 4 h. Buffer A was used to equilibrate a 25 mL Q-Sepharose column using an FPLC. The sample was loaded onto the column, and proteins were eluted with a linear gradient 0-500 mM NaCl with buffer B. Fractions containing VIM-2, determined by SDS-PAGE, were pooled and concentrated to 2-3 mL in an Amicon ultraconcentrator equipped YM-10 membrane. Further purification was conducted with a Sephacryl S-200 gel filtration column using 50 mM HEPES, pH 7.5, containing 150 mM NaCl. Fractions containing pure VIM-2 were pooled, and metal analysis was performed.
as §1, §2

VIM-2 [3] = biological target: T2, VIM-2; assay: biochemical; remark: listed apart in the source
Description: as §3, with “Further purification was conducted with a Sephacryl S-200 gel filtration column using 50 mM HEPES, pH 7.5, containing 150 mM NaCl.” left out
The enzyme inhibition constant (Ki) was derived from initial-velocity measurements by nonlinear regression using competitive-inhibition enzyme kinetics using Graphpad Prism 6.

[4] = cited from earlier work
VIM-2 [5] = biological target: T2, VIM-2; conditions: after incubation with inhibitor and dialysis
Description: VIM-2 was diluted to 6 μM with 50 mM HEPES, pH 7.5, containing 150 mM NaCl. The diluted protein solution was used to make several 5 mL aliquots. […] One aliquot contained one molar equivalent of inhibitor (6 μM), with respect to enzyme concentration, and the second aliquot contained two molar equivalents (12 μM). One aliquot contained no inhibitor. Each aliquot was then incubated for 4 h at 4° C. Following incubation, each aliquot was dialyzed versus 500 mL of 50 mM HEPES, pH 7.5, for 4 h at 4° C. The aliquots were analyzed using ICP-AES, as previously described REF. The emission wavelengths used were 213.856, 238.892, 259.940, 231.604, and 324.754 nm for Zn, Co, Fe, Ni, and Cu, respectively.
To further address the mode of action of 8-hydroxyquinolines, equilibrium dialysis experiments were conducted. […] EDTA, a well-known metal scavenger, inhibits all MBLs through a chelation mechanism (Bush, K.; Jacoby, G. A. Updated Functional Classification of beta-Lactamases. Antimicrobial Agents and Chemotherapy 2010, 54, 969-976).

NDM-1 [6] = biological target: T1, NDM-1
Description: Nitrocefin (Cayman, CAS 41906-86-9) was used as the chromogenic substrate for all biochemical assays. […] The rate of product formation was monitored based on the λmax=486 nm absorbance taken at 10 s intervals for 30 mins. […] Velocity versus substrate concentration curves were fitted by nonlinear regression using Michaelis-Menten Enzyme kinetics with Graphpad Prism 6.

VIM-2 [7] = conditions: reported previously, cited from earlier work
E. coli = assay type: cell-based, Escherichia coli
Description: (§4) The optical density of the cell cultured was monitored at 600 nm (OD600 nm). The cells were cultured on 0.8 g/100 ml nutrient agar plate at pH 7.0 and 37° C. […] An overnight culture of the bacterial strain was sub-cultured to 0.06 OD600 nm into the NB medium and was then seeded at max 200 μl into the wells of a 96 well microtiter plate. Samples were then incubated at 37° C. and shaken at 200 rpm for 18 h. The absorbance was measured on an ELIZA plate reader and analyzed with the Gen5™ software suite (version 1.08).
(§5) • The data are reported as relative percentage growth compared to untreated cells.

VIM-2 expressing E. coli = assay type: cell-based, Escherichia coli; conditions: single dose; for VIM-2 expressing E. coli Amox (+) relative percentage growth compared to untreated cells: with 50 μM amoxicillin
Description: as §4, §5

in vitro = conditions: human
Description: Human embryonic kidney cell line (HEK293) were grown in 100 mm cell culture petri dishes at 37° C. with 5% CO2 in Dulbecco's Modified Eagle's Medium high glucose medium containing 1% penicillin/streptomycin (Sigma-Aldrich, St. Louis, MO) and supplemented with 5% of fetal bovine serum (Thermo Fisher Scientific Gibco®). Cells under 10 passages and the 80% of monitored cell petri dish were used for experiment.
Cytotoxicity of tested compounds were estimated using the MTT method. Cell viability were measured by counting viable cells by using the 3 (4,5dimethylthiazol-2-yl)-2,5-diphenyltetrazolium bromide (MTT) (Sigma-Aldrich, St. Louis, MO) colorimetric dye-reduction assay. […] Following 24 h incubation and attachment, the cells were incubated for 72 h with different concentrations of inhibitors (0.01˜100 μM) in culture media without FBS. The Control cells were supplemented only with a medium without containing FBS. All samples in 96 well plate were incubated at 37° C. at an atmosphere of 5% CO2. […] The absorbance was measured using a micro-plate reader at wavelength 590 nm. The CC50 were obtained based on a comparison with untreated cells by fitting the data to a sigmoidal dose-response equation using Graphpad Prism 6.

[8] = 50 μM compound, 5 nM MBL, 10 μM nitrocefin, 30 mins
[9] = 50 μM compound, 5 nM MBL, 10 μM nitrocefin, 30 mins, read-out: NDM-1 percentage inhibition
[10] = 50 μM compound, 5 nM MBL, 10 μM nitrocefin, 30 mins, read-out: VIM-2 percentage inhibition
[11] = 5 nM MBL, 10 μM nitrocefin, read-out: VIM-2 IC50
[12] = nitrocefin substrate, competitive-inhibition fit, read-out: VIM-2 Ki

T1 sequence (C7C422 whole entry, looked up, species assumed): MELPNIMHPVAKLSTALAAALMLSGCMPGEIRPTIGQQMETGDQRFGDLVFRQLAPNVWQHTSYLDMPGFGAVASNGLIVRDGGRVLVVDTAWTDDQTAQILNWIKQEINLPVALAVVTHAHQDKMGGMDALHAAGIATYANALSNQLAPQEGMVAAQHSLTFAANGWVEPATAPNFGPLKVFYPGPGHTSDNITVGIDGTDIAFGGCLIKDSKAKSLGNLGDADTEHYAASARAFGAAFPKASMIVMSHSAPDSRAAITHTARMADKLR

With `O=C(O)/C(S)=C\c1cccnc1` [Compound 5] the NDM-1 percentage inhibition (NDM-1 [1]; [8]) was 39%, the inhibition at 50 µM (NDM-1 [1]; [9]) was 40% and the inhibition at 50 µM (VIM-2 [2]; [10]) was 40%. It also gave an IC50 (VIM-2 [3]) of 24 µM and a Ki (VIM-2 [3]) of 4.5 µM.
For `O=C1[C@@H](c2ccccc2)SCN1O` [Compound 17], the inhibition at 50 µM (NDM-1 [1]; [9]) was 40%, the VIM-2 percentage inhibition (VIM-2 [2]; [8]) was 33% and the inhibition at 50 µM (VIM-2 [2]; [10]) was 40%. For the same compound, the IC50 (VIM-2 [3]) was 41 µM and the Ki (VIM-2 [3]) was 5.3 µM.
For `Oc1cccc2cccnc12` [Compound 31, 8-Hydroxyquinoline], the “pKa, hydroxyl group” value ([4]; hydroxyl group) is listed as 9.89, the “pKa, nitrogen atom” value ([4]; nitrogen atom) is listed as 5.13 and the “metal content of VIM-2 / removal of Zn(II) from the active site” value (VIM-2 [5]) is listed as “do not inhibit VIM-2 by removal of Zn(II)”. The VIM-2 percentage inhibition (VIM-2 [2]; [8]) was 98%, the inhibition at 50 µM (VIM-2 [2]; read-out: VIM-2 percentage inhibition, 50 μM compound, 5 nM MBL, 10 μM nitrocefin, 30 mins) was greater than 96% and the IC50 (VIM-2 [3]) was 3.6 µM. The Ki (VIM-2 [3]) was 0.67 µM.
`Oc1c(Cl)cc(Cl)c2cccnc12` [Compound 47] showed a VIM-2 percentage inhibition (VIM-2 [2]; [8]) of 96%, an IC50 (VIM-2 [3]; [11]) of 4.1 µM and a Ki (VIM-2 [3]; [12]) of 1.1 µM.
With `O=C(O)c1cnc2c(O)cccc2c1` [Compound 43] the VIM-2 percentage inhibition (VIM-2 [2]; [8]) was 91%, the IC50 (VIM-2 [3]; [11]) was 1.6 µM and the Ki (VIM-2 [3]; [12]) was 0.53 µM.
`O=C(c1ccc(O)cc1)c1ccc(O)c(O)c1O` [Compound 13] showed an NDM-1 percentage inhibition (NDM-1 [1]; [8]) of 36%, an inhibition at 50 µM (NDM-1 [1]; [9]) of 40% and a VIM-2 percentage inhibition (VIM-2 [2]; [8]) of 48%. For the same compound, the inhibition at 50 µM (VIM-2 [2]; [10]) was 40%, the IC50 (VIM-2 [3]) was 81 µM and the Ki (VIM-2 [3]) was 8.8 µM.
For `O=C(Cc1cccs1)N[C@@H]1C(=O)N2C(C(=O)O)=C(/C=C/c3ccc([N+](=O)[O-])cc3[N+](=O)[O-])CS[C@H]12` [nitrocefin, Nitrocefin], the “kcat, hydrolysis of nitrocefin by NDM-1” value (NDM-1 [6]) is listed as 25 s⁻¹, the Km (NDM-1 [6]; read-out: Km, hydrolysis of nitrocefin by NDM-1) is listed as 2.2 µM and the “kcat, hydrolysis of nitrocefin by VIM-2” value (VIM-2 [7]) is listed as 212 s⁻¹. For the same compound, the Km (VIM-2 [7]; read-out: Km, hydrolysis of nitrocefin by VIM-2) was 23 µM.
Work on `Nc1ccc(O)c2ncccc12` [Compound 42] yielded a VIM-2 percentage inhibition (VIM-2 [2]; [8]) of 96%, an IC50 (VIM-2 [3]; [11]) of 3.8 µM and a Ki (VIM-2 [3]; [12]) of 0.88 µM.
With `C[C@H](CS)C(=O)N1CCC[C@H]1C(=O)O` [Compound 1, L-captopril, reference compound] the inhibition at 50 µM (NDM-1 [1]; read-out: NDM-1 percentage inhibition, 50 μM compound, 5 nM MBL, 10 μM nitrocefin, 30 mins) was 93% and the “metal content of VIM-2 / removal of Zn(II) from the active site” value (VIM-2 [5]) was “relatively unaffected”.
With `CC1(C)S[C@@H]2[C@H](NC(=O)[C@H](N)c3ccc(O)cc3)C(=O)N2[C@H]1C(=O)O` [Amox, amoxicillin] the “E. coli Amox (+) relative percentage growth compared to untreated cells” value (E. coli) was 3.6%, the “growth inhibition of wild type E. coli” value (E. coli) was “over 96%” and the “VIM-2 expressing E. coli Amox (+) relative percentage growth compared to untreated cells” value (VIM-2 expressing E. coli) was 77%.
For `O=C(O)CN(CCN(CC(=O)O)CC(=O)O)CC(=O)O` [EDTA], the “Zn(II) removed from VIM-2” value (VIM-2 [5]) was 1 equivalent of Zn(II).
`Oc1ccc(Cl)c2cccnc12` [Compound 46] gave a VIM-2 percentage inhibition (VIM-2 [2]; [8]) of 98%, an IC50 (VIM-2 [3]; [11]) of 4.1 µM and a Ki (VIM-2 [3]; [12]) of 0.96 µM.
For `Cc1ccc2c(Cl)cc(Cl)c(O)c2n1` [Compound 50], the VIM-2 percentage inhibition (VIM-2 [2]; [8]) was 95%, the IC50 (VIM-2 [3]; [11]) was 4.8 µM and the Ki (VIM-2 [3]; [12]) was 0.96 µM.
For `O=C(O)[C@H]1/C(=C/CO)O[C@@H]2CC(=O)N21` [Clav, Clavulanate], the “E. coli Amox (+) relative percentage growth compared to untreated cells” value (E. coli; wild type E. coli, single dose, with 50 μM amoxicillin) was 2.9%, the “E. coli Amox (−) relative percentage growth compared to untreated cells” value (E. coli; wild type E. coli, single dose, without amoxicillin) was 86% and the “VIM-2 expressing E. coli Amox (+) relative percentage growth compared to untreated cells” value (VIM-2 expressing E. coli) was 57%. The “VIM-2 expressing E. coli Amox (−) relative percentage growth compared to untreated cells” value (VIM-2 expressing E. coli; without amoxicillin) was 93%.
Compound `O=C(O)c1cccc(=S)n1O` [Compound 51, 1-hydroxypyridine-2 (1H)-thione-6-carboxylic acid, reference compound] has a CC50 at 72 h (in vitro) of 92 µM, an IC50 (VIM-2 [3]) of 0.31 µM and a Ki (VIM-2 [3]) of 0.02 µM.
`Cc1cc(C(=O)O)nc(O)n1` [Compound 27] showed an inhibition at 50 µM (NDM-1 [1]; [9]) of 54% and an inhibition at 50 µM (VIM-2 [2]; [10]) of 17%.
